Laboratory results taken from PubChem BioAssay AID2060497 (Molecular Pharmacology Branch, DTP, NCI, 2025).
pIC50: −log10 of the molar value.

System: 317291-083-R-J1-PDC complex spheroids, viability
Assay: Anticancer human tumor 317291-083-R-J1-PDC patient-derived soft tissue sarcoma cell line growth inhibition [GQUAD]
Details: for pIC50: curve of first compound; for viability, T/C: stronger effect = lower value
From the text: DNA G-quadruplex Stabilizer Agents in Combinations in Complex Spheroids
A high-throughput screen of multi-cell type tumor spheroids was designed to identify active combinations of DNA G-quadruplex stabilizer agents and targeted small molecules. Complex spheroids include a stromal component modeled by human endothelial cells (HUVEC) and fibroblasts modeled by human mesenchymal stem cells (MSCs). The concentration ranges selected for each drug and investigational agent were based upon clinically achievable concentrations if the clinical Cmax of the agent was known.
Compounds. The drugs and investigational agents: pidnarulex (CX-5461; NSC782164), APTO-253 (NSC789042), BRACO-19 (NSC847499), peposertib (NSC802822), ceralasertib (NSC780249), elimusertib (NSC800525), camonsertib (NSC841442), AZD-1390 (NSC803789), olaparib (NSC753686), talazoparib (NSC767125), ART-558 (NSC835418), sotorasib (NSC818433), MRTX-1133 (NSC836407), SN-38 (NSC673596), topotecan (NSC609699), etoposide (NSC141540), doxorubicin (NSC123127), gemcitabine (NSC613327), 5-fluorouracil (NSC19893), paclitaxel (NSC125973), vemurafenib (NSC761431), panobinostat (NSC761190), R-306465 (JNJ-16241199; NSC773264), adavosertib (NSC754352), TP-3654 (NSC805149), carboplatin (NSC241240), KSQ-4279 (NSC840948), and staurosporine (NSC755774) were obtained from the National Cancer Institute (NCI) Developmental Therapeutics Program Chemical Repository (34). The FDA-approved anticancer drug set is available from the NCI Developmental Therapeutics Program. […] The stock solutions were prepared in dimethyl sulfoxide (DMSO, Sigma-Aldrich, St. Louis, MO, cat. D2650) at 800-fold the tested concentration and stored at -70 degrees C prior to their use. All drugs and investigational agents were tested over a range starting from a high concentration at or near the clinical Cmax and decreasing in half-log increments. If the clinical Cmax for an agent had not been determined, the highest concentration tested was 10 microM.
2.3 Cell Culture. All cells were maintained in an incubator at 37 degrees C and 5% CO2 with 95% humidity. The PDC lines were cultured according to standard operating procedures established by the NCI PDMR. All PDCs were thawed and cultured in Matrigel-coated flasks prepared with a working solution of 1X Ham's F-12 nutrient mix, without supplementation (Invitrogen, cat. 11765054), 100 U/mL penicillin-streptomycin (Invitrogen, cat. 15140122), and 2.5% Matrigel (Corning Inc., cat. 354248) for the first three passages. The 857933-349-R-J2-PDC line was cultured in 6C/Colon 1B media, which includes advanced DMEM/F-12 (Thermo Fisher Scientific, cat. 12634028), 10 mM HEPES (Thermo Fisher Scientific, cat. 15630080), 1X GlutaMAX supplement (Thermo Fisher Scientific, cat. 35050061), 0.1 mg/mL primocin (InvivoGen, cat. ant-pm-2), 10% defined fetal bovine serum, heat inactivated (HyClone Laboratories Inc., cat. SH30070.03HI), 50% L-WRN conditioned media (ATCC, cat. CRL-3276), 1.25 mM N-Acetyl-L-cysteine (Sigma-Aldrich, cat. A9165), 10 mM nicotinamide (Sigma-Aldrich, cat. N0636), 1X B-27 supplement (Thermo Fisher Scientific, cat. 17504044), 1X N-2 supplement (Thermo Fisher Scientific, cat. 17502048), 10 microM Y-27632 dihydrochloride (Tocris Bioscience, cat. 1254), and 50 ng/mL human EGF recombinant protein (Thermo Fisher Scientific, cat. PHG0311). The 485176-168-R4-J1-PDC line was cultured in Panc media, which includes all 6C/Colon 1B media components plus 100 ng/mL human FGF-10 (Thermo Fisher Scientific, cat. 100-26), 500 nM SB-431542 (Selleckchem, cat. S1067), and gastrin (Tocris, cat. 3006).
[…]
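Further: spheroids exposed to compounds for one week before readout.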
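Wherever viability, T/C is given: percent viability relative to DMSO vehicle wells taken as 100%.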

`CC1COCCN1c1cc(C2(S(C)(=N)=O)CC2)nc(-c2ccnc3[nH]ccc23)n1` (configuration not stated) + Cc1[nH]c2ccc(F)cc2c1-c1nc2c3cccnc3c3ncccc3c2[nH]1 showed a pIC50 (second compound 0.0316 µM) of 5.82, a pIC50 (second compound 0.1 µM) of 5.88 and a pIC50 (second compound 0.316 µM) of 5.87. The pIC50 (second compound 1 µM) was 5.92, the pIC50 (second compound 3.16 µM) was 6.10 and the pIC50 (second compound 10 µM) was 6.21. For the same compound, the viability, T/C (second compound 0.0316 µM, first compound 0.0316 µM) was 109%, the viability, T/C (second compound 0.0316 µM, first compound 0.1 µM) was 112% and the viability, T/C (second compound 0.0316 µM, first compound 0.316 µM) was 90.5%. It also gave a viability, T/C (second compound 0.0316 µM, first compound 1 µM) of 64%, a viability, T/C (second compound 0.0316 µM, first compound 3.16 µM) of 27.9% and a viability, T/C (second compound 0.0316 µM, first compound 10 µM) of 15.4%. For the same compound, the viability, T/C (second compound 0.1 µM, first compound 0.0316 µM) was 93.3%, the viability, T/C (second compound 0.1 µM, first compound 0.1 µM) was 93.9% and the viability, T/C (second compound 0.1 µM, first compound 0.316 µM) was 85.8%. It also gave a viability, T/C (second compound 0.1 µM, first compound 1 µM) of 57.7%, a viability, T/C (second compound 0.1 µM, first compound 3.16 µM) of 25.2% and a viability, T/C (second compound 0.1 µM, first compound 10 µM) of 13.2%. For the same compound, the viability, T/C (second compound 0.316 µM, first compound 0.0316 µM) was 91.5%, the viability, T/C (second compound 0.316 µM, first compound 0.1 µM) was 98.6% and the viability, T/C (second compound 0.316 µM, first compound 0.316 µM) was 88.7%. It also gave a viability, T/C (second compound 0.316 µM, first compound 1 µM) of 59%, a viability, T/C (second compound 0.316 µM, first compound 3.16 µM) of 24.3% and a viability, T/C (second compound 0.316 µM, first compound 10 µM) of 14.7%. It also gave a viability, T/C (second compound 1 µM, first compound 0.0316 µM) of 101%, a viability, T/C (second compound 1 µM, first compound 0.1 µM) of 97.5% and a viability, T/C (second compound 1 µM, first compound 0.316 µM) of 97.3%. For the same compound, the viability, T/C (second compound 1 µM, first compound 1 µM) was 54.8%, the viability, T/C (second compound 1 µM, first compound 3.16 µM) was 22.1% and the viability, T/C (second compound 1 µM, first compound 10 µM) was 11.3%. It also gave a viability, T/C (second compound 3.16 µM, first compound 0.0316 µM) of 84%, a viability, T/C (second compound 3.16 µM, first compound 0.1 µM) of 82.8% and a viability, T/C (second compound 3.16 µM, first compound 0.316 µM) of 78%. The viability, T/C (second compound 3.16 µM, first compound 1 µM) was 42.5%, the viability, T/C (second compound 3.16 µM, first compound 3.16 µM) was 17.7% and the viability, T/C (second compound 3.16 µM, first compound 10 µM) was 11%. The viability, T/C (second compound 10 µM, first compound 0.0316 µM) was 53%, the viability, T/C (second compound 10 µM, first compound 0.1 µM) was 61.5% and the viability, T/C (second compound 10 µM, first compound 0.316 µM) was 86.4%. It also gave a viability, T/C (second compound 10 µM, first compound 1 µM) of 37.4%, a viability, T/C (second compound 10 µM, first compound 3.16 µM) of 16.8% and a viability, T/C (second compound 10 µM, first compound 10 µM) of 8.56%.
